Source: patent US7811797B2, “α-isomaltosylglucosaccharide-forming enzyme, process and uses of the same” (Kabushiki Kaisha Hayashibara Seibutsu Kagaku Kenkyujo, priority 2000, dated 2010)

What was measured:
[1] = Inclusion action; format: physicochemical
Experimental: To 100 g of the aqueous solution was added 2 g of methanol, 3 g of ethanol, or 4.6 g acetic acid to be included by the cyclotetrasaccharide. Thereafter, each of the resulting solutions was filtered to remove non-included products, and the filtrate was dried in vacuo. As a control, similar inclusion products were prepared by using “ISOELITE™ P”, a branched cyclodextrin commercialized by Maruha K.K., Tokyo, Japan, which were known to have inclusion ability.
To measure the amount of the inclusion products in the resulting lyophilized powders, one gram of each powder was dissolved in five milliliters water and extracted after admixing with five milliliters of diethylether. The extraction was repeated, and the resulting extracts were quantified on gas chromatography.

[2] = tested on: Eubacterium aerofaciens ATCC 25986; assay: Assimilation test, Eubacterium aerofaciens; format: cell-based; settings: PYF medium with 0.5% saccharide, 37° C., four days, anaerobic
[3] = Amino carbonyl reaction with glycine; format: physicochemical; settings: 10% (w/v) with 1% (w/v) glycine, pH 7.0, 100° C.
Experimental: (§1) Four milliliters of the resulting solution were placed in a glass test tube, sealed, and heated at 100° C. for 30 to 90 min. After allowing to stand for cooling at ambient temperature, each of the resulting solutions was measured for coloration degree to examine on their amino carbonyl reactivity. The coloration degree was evaluated based on the absorbance in a cell with 1-cm light pass at a wavelength of 480 nm.

[4] = tested on: mice; assay: Acute toxicity test, oral administration; format: in vivo
Excerpt: Based on this, the LD50 of cyclotetrasaccharide was at least 50 g/kg mouse body weight, though the data were not so accurate.

[5] = tested on: Lactobacillus acidophilus JCM 1132; assay: Assimilation test, Lactobacillus acidophilus; format: cell-based; settings: PYF medium with 0.5% saccharide, 37° C., four days, anaerobic
[6] = tested on: internal content of rat cecum; assay: Fermentation test by internal content of rat cecum; format: in vitro ADME
Experimental: The internal content of rat cecum was collected by anesthetizing a Wister male rat with ether, allowing the rat to die, collecting the internal content under anaerobic conditions, and suspending the resultant with 4-fold volumes of a 0.1 M aqueous solution of sodium bicarbonate. Cyclotetrasaccharide was added in an amount of about 7% by weight to the internal content of rat cecum, and the contents of cyclotetrasaccharide still remained just after and 12 hours after the addition of the internal content was quantified on gas chromatography. As a result, the contents of cyclotetrasaccharide of the former and latter were respectively 68.0 mg and 63.0 mg per one gram of the internal content of rat cecum.

[7] = Amino carbonyl reaction with polypeptone; format: physicochemical; settings: 10% (w/v) with 5% (w/v) polypeptone, 100° C., minus the control
Experimental: as §1, with “reactivity. In parallel, as a control, a solution with only polypeptone was provided and similarly treated as above.” for “reactivity.”, “level of the absorbance, measured” for “absorbance”, “nm, minus the control.” for “nm.”

[8] = pH stability of cyclotetrasaccharide solution; format: physicochemical; settings: 4% (w/v), 100° C. for 24 hours; for Purity (%) after heating: HPLC
Experimental: Eight milliliters of each solution was placed in a glass test tube, followed by sealing the test tube and heating the solution at 100° C. for 24 hours. After cooling, each solution was measured for coloration degree and determined for purity on HPLC. The coloration degree was evaluated based on the absorbance in a cell with a 1-cm light pass at a wavelength of 480 nm.

[9] = molecular target: T1, Salivary amylase (Homo sapiens, UniProt P0DUB6); assay: Digestion test in vitro, salivary amylase
T1 sequence (P0DUB6 16-511): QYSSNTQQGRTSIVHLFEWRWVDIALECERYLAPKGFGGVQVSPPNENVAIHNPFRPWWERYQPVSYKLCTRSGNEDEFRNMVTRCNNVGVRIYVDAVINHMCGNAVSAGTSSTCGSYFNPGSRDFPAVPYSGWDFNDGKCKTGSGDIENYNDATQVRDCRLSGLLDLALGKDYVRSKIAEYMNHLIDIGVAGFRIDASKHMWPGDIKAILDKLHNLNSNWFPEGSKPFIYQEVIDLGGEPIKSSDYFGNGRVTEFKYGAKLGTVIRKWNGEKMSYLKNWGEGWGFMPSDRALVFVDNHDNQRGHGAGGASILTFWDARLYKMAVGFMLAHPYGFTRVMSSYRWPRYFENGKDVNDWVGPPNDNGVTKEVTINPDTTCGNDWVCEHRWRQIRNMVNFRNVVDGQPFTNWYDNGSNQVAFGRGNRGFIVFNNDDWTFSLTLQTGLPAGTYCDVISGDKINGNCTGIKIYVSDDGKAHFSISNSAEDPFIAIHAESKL

OCC1OC2OCC3O[C@H](O[C@H]4C(O)C(CO)OC(OCC5O[C@H](O[C@@H](C1O)C2O)C(O)C(O)[C@@H]5O)C4O)C(O)C(O)[C@@H]3O (stereo partly drawn) [Cyclotetrasaccharide, cyclo{→6)-α-D-glucopyranosyl-(1→3)-α-D-glucopyranosyl-(1→6)-α-D-glucopyranosyl-(1→3)-α-D-glucopyransoyl-(1→}]
inclusion ability relative to that of the branched cyclodextrin ([1]; by weight): about 2 folds | Inclusion amount (mg/g lyophilized powder) ([1]; inclusion product Acetic acid): 67.74 mg/g lyophilized powder | Inclusion amount (mg/g lyophilized powder) ([1]; inclusion product Ethanol): 17.26 mg/g lyophilized powder | Inclusion amount (mg/g lyophilized powder) ([1]; inclusion product Methanol): 6.71 mg/g lyophilized powder | Assimilability [2]: − (judged negative (−) when the post culture had a pH of 6.0 or higher) | Coloration degree (A480 nm) ([3]; heating time 0 min): 0.00 A480 nm | Coloration degree (A480 nm) ([3]; heating time 30 min): 0.00 A480 nm | Coloration degree (A480 nm) ([3]; heating time 60 min): 0.00 A480 nm | Coloration degree (A480 nm) ([3]; heating time 90 min): 0.00 A480 nm | death of mice ([4]; highest possible dose): did not induce death of mice | LD50 ([4]; mice, data not so accurate): at least 50 g/kg mouse body weight | Assimilability [5]: − (judged negative (−) when the post culture had a pH of 6.0 or higher) | content of cyclotetrasaccharide remained ([6]; 12 hours after the addition): 63.0 mg per one gram of the internal content of rat cecum | content of cyclotetrasaccharide remained ([6]; just after the addition, about 7% by weight added): 68.0 mg per one gram of the internal content of rat cecum | Coloration degree (A480 nm) ([7]; heating time 0 min): 0.00 A480 nm | Coloration degree (A480 nm) ([7]; heating time 30 min): 0.00 A480 nm | Coloration degree (A480 nm) ([7]; heating time 60 min): 0.00 A480 nm | Coloration degree (A480 nm) ([7]; heating time 90 min): 0.00 A480 nm | Coloration degree (A480 nm) ([8]; pH 2.0 (Acetate buffer)): 0.00 A480 nm | Purity (%) after heating ([8]; pH 2.0 (Acetate buffer)): 93% | Coloration degree (A480 nm) ([8]; pH 3.0 (Acetate buffer)): 0.00 A480 nm | Purity (%) after heating ([8]; pH 3.0 (Acetate buffer)): 100% | Coloration degree (A480 nm) ([8]; pH 4.0 (Acetate buffer)): 0.00 A480 nm | Purity (%) after heating ([8]; pH 4.0 (Acetate buffer)): 100% | Coloration degree (A480 nm) ([8]; pH 5.0 (Acetate buffer)): 0.00 A480 nm | Purity (%) after heating ([8]; pH 5.0 (Acetate buffer)): 100% | Coloration degree (A480 nm) ([8]; pH 6.0 (Tris-HCl buffer)): 0.00 A480 nm | Purity (%) after heating ([8]; pH 6.0 (Tris-HCl buffer)): 100% | Coloration degree (A480 nm) ([8]; pH 7.0 (Tris-HCl buffer)): 0.00 A480 nm | Purity (%) after heating ([8]; pH 7.0 (Tris-HCl buffer)): 100% | Coloration degree (A480 nm) ([8]; pH 8.0 (Tris-HCl buffer)): 0.00 A480 nm | Purity (%) after heating ([8]; pH 8.0 (Tris-HCl buffer)): 100% | Coloration degree (A480 nm) ([8]; pH 9.0 (Ammonium buffer)): 0.00 A480 nm | Purity (%) after heating ([8]; pH 9.0 (Ammonium buffer)): 100% | Coloration degree (A480 nm) ([8]; pH 10.0 (Ammonium buffer)): 0.00 A480 nm | Purity (%) after heating ([8]; pH 10.0 (Ammonium buffer)): 100%

OC[C@@H](O)[C@@H](O[C@H]1O[C@H](CO)[C@@H](O)[C@H](O)[C@H]1O)[C@H](O)[C@@H](O)CO [Maltitol, reference compound]
Decomposition percentage (%) by digestive enzyme [9]: 0.0%
